# According to patent US10760110B2, “Antibiotic testing and screening system” (priority 2017, dated 2020):
# Where two headings read alike, the source gives them in different places.
# Test system: K. pneumoniae NVT1001 strains with ESBL or AmpC β-lactamase plasmids
# Test: Etest MIC of β-lactams, OmpK35/36 loss, ΔramR and/or extended-spectrum β-lactamase and AmpC β-lactamase (Table 8)
# Format: cell-based, Klebsiella pneumoniae
# Details: for MIC: Klebsiella pneumoniae
# Protocol: DNA fragments of the resistance genes along with their flanking regions were amplified from clinical plasmids via PCR with specific primer pairs. The resulting PCR fragments were digested and then cloned into the plasmid pACYC177 or pACYC184. The resulting plasmids were then transformed into K. pneumoniae strain NVT1001 via electroporation. The recombinant bacteria were plated onto LB agar plates containing kanamycin (50 mg/L) or chloramphenicol (50 mg/L), and the presence of the cloned gene was confirmed via PCR and DNA sequencing.
# The MICs of antibiotics were determined using the Etest (Biodisk AB, Sweden) according to the manufacturer's instructions. The MICs from the Etest, which fall between standard two-fold dilutions, were rounded up to the next highest two-fold value. The MICs of ceftazidime and cefotaxime against K. pneumoniae NVT1001 harbouring the pACYC177 plasmid with blaOXA-48 were further determined using a broth microdilution test according to the recommendations of the CLSI,^25 and the results were interpreted according to the breakpoints established by the CLSI in 2017.^25 Meanwhile, due to the lack of CLSI breakpoints in 2016 and 2017, the results for cephalothin were interpreted according to the breakpoints established by the CLSI in 2015,^26 and the results for moxifloxacin were interpreted according to the breakpoints established by the EUCAST in 2017.^27
# [1] = CMY-2 on pACYC177, WT (NVT1001), read-out: MIC
# [2] = CMY-2 on pACYC177, Δ35 (ΔompK35 mutant)
# [3] = CMY-2 on pACYC177, Δ35/36 (ΔompK35/36 mutant)
# [4] = CMY-2 on pACYC177, Δ36 (ΔompK36 mutant)
# [5] = CMY-2 on pACYC177, ΔramR mutant
# [6] = CMY-2 on pACYC177, ΔramRΔ35 (ΔramRΔompK35 mutant)
# [7] = CMY-2 on pACYC177, ΔramRΔ35/36 (ΔramRΔompK35/36 mutant)
# [8] = CMY-2 on pACYC177, ΔramRΔ36 (ΔramRΔompK36 mutant)
# [9] = CTX-M-14 on pACYC177, WT (NVT1001), read-out: MIC
# [10] = CTX-M-14 on pACYC177, Δ35 (ΔompK35 mutant)
# [11] = CTX-M-14 on pACYC177, Δ35/36 (ΔompK35/36 mutant)
# [12] = CTX-M-14 on pACYC177, Δ36 (ΔompK36 mutant)
# [13] = CTX-M-14 on pACYC177, ΔramR mutant
# [14] = CTX-M-14 on pACYC177, ΔramRΔ35 (ΔramRΔompK35 mutant)
# [15] = CTX-M-14 on pACYC177, ΔramRΔ35/36 (ΔramRΔompK35/36 mutant)
# [16] = CTX-M-14 on pACYC177, ΔramRΔ36 (ΔramRΔompK36 mutant)
# [17] = CTX-M-15 on pACYC177, WT (NVT1001), read-out: MIC
# [18] = CTX-M-15 on pACYC177, Δ35 (ΔompK35 mutant)
# [19] = CTX-M-15 on pACYC177, Δ35/36 (ΔompK35/36 mutant)
# [20] = CTX-M-15 on pACYC177, Δ36 (ΔompK36 mutant)
# [21] = CTX-M-15 on pACYC177, ΔramR mutant
# [22] = CTX-M-15 on pACYC177, ΔramRΔ35 (ΔramRΔompK35 mutant)
# [23] = CTX-M-15 on pACYC177, ΔramRΔ35/36 (ΔramRΔompK35/36 mutant)
# [24] = CTX-M-15 on pACYC177, ΔramRΔ36 (ΔramRΔompK36 mutant)
# [25] = DHA-1-AmpR on pACYC177, WT (NVT1001), read-out: MIC
# [26] = DHA-1-AmpR on pACYC177, Δ35 (ΔompK35 mutant)
# [27] = DHA-1-AmpR on pACYC177, Δ35/36 (ΔompK35/36 mutant)
# [28] = DHA-1-AmpR on pACYC177, Δ36 (ΔompK36 mutant)
# [29] = DHA-1-AmpR on pACYC177, ΔramR mutant
# [30] = DHA-1-AmpR on pACYC177, ΔramRΔ35 (ΔramRΔompK35 mutant)
# [31] = DHA-1-AmpR on pACYC177, ΔramRΔ35/36 (ΔramRΔompK35/36 mutant)
# [32] = DHA-1-AmpR on pACYC177, ΔramRΔ36 (ΔramRΔompK36 mutant)
# [33] = SHV-12 on pACYC177, WT (NVT1001), read-out: MIC
# [34] = SHV-12 on pACYC177, Δ35 (ΔompK35 mutant)
# [35] = SHV-12 on pACYC177, Δ35/36 (ΔompK35/36 mutant)
# [36] = SHV-12 on pACYC177, Δ36 (ΔompK36 mutant)
# [37] = SHV-12 on pACYC177, ΔramR mutant
# [38] = SHV-12 on pACYC177, ΔramRΔ35 (ΔramRΔompK35 mutant)
# [39] = SHV-12 on pACYC177, ΔramRΔ35/36 (ΔramRΔompK35/36 mutant)
# [40] = SHV-12 on pACYC177, ΔramRΔ36 (ΔramRΔompK36 mutant)
# [41] = no supplemental plasmid, WT (NVT1001), read-out: MIC
# [42] = no supplemental plasmid, Δ35 (ΔompK35 mutant)
# [43] = no supplemental plasmid, Δ35/36 (ΔompK35/36 mutant)
# [44] = no supplemental plasmid, Δ36 (ΔompK36 mutant)
# [45] = no supplemental plasmid, ΔramR mutant
# [46] = no supplemental plasmid, ΔramRΔ35 (ΔramRΔompK35 mutant)
# [47] = no supplemental plasmid, ΔramRΔ35/36 (ΔramRΔompK35/36 mutant)
# [48] = no supplemental plasmid, ΔramRΔ36 (ΔramRΔompK36 mutant)
structure (smiles),measurement,setting,value
CO[C@@]1(NC(=O)Cc2cccs2)C(=O)N2C(C(=O)O)=C(COC(N)=O)CS[C@@H]21 [Cefoxitin],MIC,[1],> 256 µg/mL
same,MIC,[2],> 256 µg/mL
same,MIC,[3],> 256 µg/mL
same,MIC,[4],> 256 µg/mL
same,MIC,[5],> 256 µg/mL
same,MIC,[6],> 256 µg/mL
same,MIC,[7],> 256 µg/mL
same,MIC,[8],> 256 µg/mL
same,MIC,[9],4 µg/mL
same,MIC,[10],8 µg/mL
same,MIC,[11],64 µg/mL
same,MIC,[12],16 µg/mL
same,MIC,[13],64 µg/mL
same,MIC,[14],64 µg/mL
same,MIC,[15],> 256 µg/mL
same,MIC,[16],> 256 µg/mL
same,MIC,[17],4 µg/mL
same,MIC,[18],8 µg/mL
same,MIC,[19],64 µg/mL
same,MIC,[20],16 µg/mL
same,MIC,[21],64 µg/mL
same,MIC,[22],64 µg/mL
same,MIC,[23],> 256 µg/mL
same,MIC,[24],> 256 µg/mL
same,MIC,[25],> 256 µg/mL
same,MIC,[26],> 256 µg/mL
same,MIC,[27],> 256 µg/mL
same,MIC,[28],> 256 µg/mL
same,MIC,[29],> 256 µg/mL
same,MIC,[30],> 256 µg/mL
same,MIC,[31],> 256 µg/mL
same,MIC,[32],> 256 µg/mL
same,MIC,[33],4 µg/mL
same,MIC,[34],8 µg/mL
same,MIC,[35],128 µg/mL
same,MIC,[36],16 µg/mL
same,MIC,[37],64 µg/mL
same,MIC,[38],64 µg/mL
same,MIC,[39],> 256 µg/mL
same,MIC,[40],> 256 µg/mL
same,MIC,[41],4 µg/mL
same,MIC,[42],4 µg/mL
same,MIC,[43],128 µg/mL
same,MIC,[44],16 µg/mL
same,MIC,[45],64 µg/mL
same,MIC,[46],64 µg/mL
same,MIC,[47],> 256 µg/mL
same,MIC,[48],> 256 µg/mL
same,effects on the MIC,production of ESBLs tested alone,no significant (≥4-fold) effects
CC(C)(O/N=C(\C(=O)N[C@@H]1C(=O)N2C(C(=O)[O-])=C(C[n+]3ccccc3)CS[C@H]12)c1csc(N)n1)C(=O)O [Ceftazidime],MIC,[1],> 256 µg/mL
same,MIC,[2],> 256 µg/mL
same,MIC,[3],> 256 µg/mL
same,MIC,[4],> 256 µg/mL
same,MIC,[5],> 256 µg/mL
same,MIC,[6],> 256 µg/mL
same,MIC,[7],> 256 µg/mL
same,MIC,[8],> 256 µg/mL
same,MIC,[9],1 µg/mL
same,MIC,[10],4 µg/mL
same,MIC,[11],8 µg/mL
same,MIC,[12],2 µg/mL
same,MIC,[13],8 µg/mL
same,MIC,[14],8 µg/mL
same,MIC,[15],16 µg/mL
same,MIC,[16],8 µg/mL
same,MIC,[17],64 µg/mL
same,MIC,[18],> 256 µg/mL
same,MIC,[19],> 256 µg/mL
same,MIC,[20],64 µg/mL
same,MIC,[21],256 µg/mL
same,MIC,[22],> 256 µg/mL
same,MIC,[23],> 256 µg/mL
same,MIC,[24],> 256 µg/mL
same,MIC,[25],16 µg/mL
same,MIC,[26],128 µg/mL
same,MIC,[27],> 256 µg/mL
same,MIC,[28],32 µg/mL
same,MIC,[29],64 µg/mL
same,MIC,[30],64 µg/mL
same,MIC,[31],128 µg/mL
same,MIC,[32],64 µg/mL
same,MIC,[33],64 µg/mL
same,MIC,[34],> 256 µg/mL
same,MIC,[35],> 256 µg/mL
same,MIC,[36],128 µg/mL
same,MIC,[37],> 256 µg/mL
same,MIC,[38],> 256 µg/mL
same,MIC,[39],> 256 µg/mL
same,MIC,[40],> 256 µg/mL
same,MIC,[41],0.25 µg/mL
same,MIC,[42],0.5 µg/mL
same,MIC,[43],1 µg/mL
same,MIC,[44],0.5 µg/mL
same,MIC,[45],2 µg/mL
same,MIC,[46],2 µg/mL
same,MIC,[47],2 µg/mL
same,MIC,[48],2 µg/mL
